The text below walks through data of patent US20240116985A1, “STAPLED PEPTIDES AND METHODS THEREOF” (priority 2020, published 2024).

The target in data set [1] is T1, full-length beta-Catenin (Uniprot ID P35222) (Homo sapiens, UniProt P35222).
T1 construct: 10 nM full-length beta-Catenin (Uniprot ID P35222)
T1 sequence (P35222 1-781): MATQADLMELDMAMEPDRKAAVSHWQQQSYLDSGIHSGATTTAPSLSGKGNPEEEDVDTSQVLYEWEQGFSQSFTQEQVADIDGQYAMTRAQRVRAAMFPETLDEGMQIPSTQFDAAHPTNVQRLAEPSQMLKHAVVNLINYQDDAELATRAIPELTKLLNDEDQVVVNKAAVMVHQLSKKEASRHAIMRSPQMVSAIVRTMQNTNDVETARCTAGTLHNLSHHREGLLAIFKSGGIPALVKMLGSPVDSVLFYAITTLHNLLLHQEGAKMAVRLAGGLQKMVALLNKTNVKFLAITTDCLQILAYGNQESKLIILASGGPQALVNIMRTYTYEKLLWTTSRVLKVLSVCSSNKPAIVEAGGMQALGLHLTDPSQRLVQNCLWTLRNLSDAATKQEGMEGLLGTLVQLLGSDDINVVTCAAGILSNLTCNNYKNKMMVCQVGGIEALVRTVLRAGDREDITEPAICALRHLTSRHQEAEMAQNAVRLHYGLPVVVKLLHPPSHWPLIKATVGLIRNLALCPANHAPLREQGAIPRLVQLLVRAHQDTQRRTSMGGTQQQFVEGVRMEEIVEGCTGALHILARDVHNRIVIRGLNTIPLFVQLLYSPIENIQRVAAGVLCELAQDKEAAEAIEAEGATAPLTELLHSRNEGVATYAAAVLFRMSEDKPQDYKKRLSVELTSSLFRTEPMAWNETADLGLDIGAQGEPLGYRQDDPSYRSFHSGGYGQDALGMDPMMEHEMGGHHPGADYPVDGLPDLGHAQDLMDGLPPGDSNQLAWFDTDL
Kind of data set: Fluorescence polarization IC50 (beta-catenin / 5FAM-TCF4 10-53 competition). The data set is classed as binding. A general note: In fluorescence polarisation assays a small probe gives low polarisation when free and higher when bound to something large.

The next data set in a line: CHI Log D procedure. The format is physicochemical. Particulars: for chromatographic logD: pH 7.4, CHI Log D; for CHI Log D: pH 7.4.
The nature of a further data set: Solubility in PBS. The format is physicochemical. Summed up:
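HPLC quantitation of peptide remaining in the PBS supernatant after ultracentrifugation, referenced to a 50 μM solution in DMSO.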

Where [2] appears, read: fluorescence polarization, read-out: beta-Catenin FP IC50.

Structures are written as SMILES. Values after ≈ are worked out from the molar mass of the structure shown. Like-named read-outs stand apart in the source and are kept apart here.

As a reminder, the chromatographic logD is a lipophilicity value derived from retention on a column. In general, Solubility refers to how much of the substance goes into solution per volume. A high value points to a readily soluble substance. As to `CC(=O)N1CCC[C@]12CC=CCCCC1(CCCC=CCCCCCC[C@@](C)(C(=O)N[C@@H](Cc3ccccc3)C(=O)N[C@@H](Cc3csc4ccccc34)C(=O)N[C@@H](CCC(N)=O)C(N)=O)NC(=O)[C@H](CC(N)=O)NC(=O)[C@H](Cc3cscn3)NC(=O)[C@H](C)NC(=O)[C@H](C)NC(=O)[C@H](CCC(=O)O)NC(=O)[C@H](CC(=O)O)NC1=O)NC(=O)[C@H](C)NC(=O)[C@H](CC(=O)O)NC2=O` (stereo partly drawn) [I-524, Ac-PL3-Asp-Ala-B5-Asp-Glu-Ala-Ala-4Thz-Asn-S8-Phe-BztA-Gln-NH2], the IC50 in data set [1] (setting [2]) worked out at 2550 nM. This compound also displayed a chromatographic logD in “CHI Log D procedure” of 1.89. In addition, the “Solubility” value in the data set “Solubility in PBS” turned out to be 50 µM (≈ 91.7 µg/mL).
`CC(=O)N1CCC[C@]12CC=CCCCC1(CCCC=CCCCCCC[C@@](C)(C(=O)N[C@@H](Cc3ccccc3)C(=O)N[C@@H](Cc3csc4ccccc34)C(=O)N[C@@H](CCC(N)=O)C(N)=O)NC(=O)[C@H](CC(N)=O)NC(=O)[C@H](Cc3ccccc3)NC(=O)[C@H](C)NC(=O)[C@H](C)NC(=O)[C@H](CNS(C)(=O)=O)NC(=O)[C@H](CC(=O)O)NC1=O)NC(=O)[C@H](C)NC(=O)[C@H](CC(=O)O)NC2=O` (stereo partly drawn) [I-533, Ac-PL3-Asp-Ala-B5-Asp-[MeSO2]Dap-Ala-Ala-Phe-Asn-S8-Phe-BztA-Gln-NH2]: in data set [1] (setting [2]), the IC50 amounted to 155 nM. The compound further came in with a chromatographic logD in “CHI Log D procedure” of 2.29. Moreover, in the data set “Solubility in PBS” (Solubility (uM)), the Solubility worked out at 44 µM (≈ 81.9 µg/mL).
Turning to `CC(=O)N1CCC[C@]12CC=CCCCC1(CCCC=CCCCCCC[C@@](C)(C(=O)N[C@@H](Cc3ccccc3)C(=O)N[C@@H](Cc3csc4ccccc34)C(=O)N[C@@H](CCC(N)=O)C(N)=O)NC(=O)[C@H](CC(N)=O)NC(=O)[C@H](Cc3ccccc3)NC(=O)[C@H](C)NC(=O)[C@H](C)NC(=O)[C@H](CCC(=O)O)NC(=O)[C@H](CC(=O)O)NC1=O)NC(=O)[C@H](C)NC(=O)[C@H](CNS(C)(=O)=O)NC2=O` (stereo partly drawn) [I-534, Ac-PL3-[MeSO2]Dap-Ala-B5-Asp-Glu-Ala-Ala-Phe-Asn-S8-Phe-BztA-Gln-NH2], in data set [1] (setting [2]), the IC50 was 5000 nM. Moreover, the chromatographic logD in “CHI Log D procedure” was 2.43. In the data set “Solubility in PBS” (Solubility (uM)), this compound returned a Solubility of 31 µM (≈ 58.2 µg/mL).
The matching figures for `CC(=O)N1CCC[C@]12CC=CCCCC1(CCCC=CCCCCCC[C@@](C)(C(=O)N[C@@H](Cc3ccccc3)C(=O)N[C@@H](Cc3csc4ccccc34)C(=O)N[C@@H](CCC(N)=O)C(N)=O)NC(=O)[C@H](C(C)C)NC(=O)[C@H](Cc3ccccc3)NC(=O)[C@H](C)NC(=O)[C@H](C)NC(=O)[C@H](CC(=O)O)NC(=O)[C@H](CC(=O)NC(C)C)NC1=O)NC(=O)[C@H](C)NC(=O)[C@H](CC(=O)O)NC2=O` (stereo partly drawn) [I-535, Ac-PL3-Asp-Ala-B5-[NHiPr]AsnR-Asp-Ala-Ala-Phe-Val-S8-Phe-BztA-Gln-NH2]: 5000 nM, 2.86 and 47 µM (≈ 86.4 µg/mL).
For the compound `CCNC(=O)C[C@@H]1NC(=O)C2(CCCC=CCCCCCC[C@@](C)(C(=O)N[C@@H](Cc3ccccc3)C(=O)N[C@@H](Cc3csc4ccccc34)C(=O)N[C@@H](CCC(N)=O)C(N)=O)NC(=O)[C@H](C(C)C)NC(=O)[C@H](Cc3ccccc3)NC(=O)[C@H](C)NC(=O)[C@H](C)NC(=O)[C@H](CC(=O)O)NC1=O)CCCC=CC[C@]1(CCCN1C(C)=O)C(=O)N[C@@H](CC(=O)O)C(=O)N[C@@H](C)C(=O)N2` (stereo partly drawn) [I-536, Ac-PL3-Asp-Ala-B5-[NHEt]AsnR-Asp-Ala-Ala-Phe-Val-S8-Phe-BztA-Gln-NH2], the IC50 in data set [1] (setting [2]) is 4470 nM. The compound further registered a chromatographic logD in “CHI Log D procedure” of 2.75. This compound also yielded a Solubility in the data set “Solubility in PBS” (Solubility (uM)) of 23 µM (≈ 42 µg/mL).
For `CCCNC(=O)C[C@@H]1NC(=O)C2(CCCC=CCCCCCC[C@@](C)(C(=O)N[C@@H](Cc3ccccc3)C(=O)N[C@@H](Cc3csc4ccccc34)C(=O)N[C@@H](CCC(N)=O)C(N)=O)NC(=O)[C@H](C(C)C)NC(=O)[C@H](Cc3ccccc3)NC(=O)[C@H](C)NC(=O)[C@H](C)NC(=O)[C@H](CC(=O)O)NC1=O)CCCC=CC[C@]1(CCCN1C(C)=O)C(=O)N[C@@H](CC(=O)O)C(=O)N[C@@H](C)C(=O)N2` (stereo partly drawn) [I-537, Ac-PL3-Asp-Ala-B5-[NHnPr]AsnR-Asp-Ala-Ala-Phe-Val-S8-Phe-BztA-Gln-NH2], the IC50 in data set [1] (setting [2]) was 5000 nM. Besides, the chromatographic logD in “CHI Log D procedure” was found to be 2.87. This compound also yielded a Solubility in “Solubility in PBS” (Solubility (uM)) of 11 µM (≈ 20.2 µg/mL).
Taken in the same sequence, the figures for `CC(=O)N1CCC[C@]12CC=CCCCC1(CCCC=CCCCCCC[C@@](C)(C(=O)N[C@@H](Cc3ccccc3)C(=O)N[C@@H](Cc3csc4ccccc34)C(=O)N[C@@H](CCC(N)=O)C(N)=O)NC(=O)[C@H](C(C)C)NC(=O)[C@H](Cc3ccccc3)NC(=O)[C@H](C)NC(=O)[C@H](C)NC(=O)[C@H](CC(=O)O)NC(=O)[C@H](CC(=O)NC3CC3)NC1=O)NC(=O)[C@H](C)NC(=O)[C@H](CC(=O)O)NC2=O` (stereo partly drawn) [I-538, Ac-PL3-Asp-Ala-B5-[NHCyPr]AsnR-Asp-Ala-Ala-Phe-Val-S8-Phe-BztA-Gln-NH2] were 5000 nM, 2.75 and 33 µM (≈ 60.6 µg/mL).
Consider `CC(=O)N1CCC[C@]12CC=CCCCC1(CCCC=CCCCCCC[C@@](C)(C(=O)N[C@@H](Cc3ccccc3)C(=O)N[C@@H](Cc3csc4ccccc34)C(=O)N[C@@H](CCC(N)=O)C(N)=O)NC(=O)[C@H](C(C)C)NC(=O)[C@H](Cc3ccccc3)NC(=O)[C@H](C)NC(=O)[C@H](C)NC(=O)[C@H](CC(=O)O)NC(=O)[C@H](CC(=O)NC3CCC3)NC1=O)NC(=O)[C@H](C)NC(=O)[C@H](CC(=O)O)NC2=O` (stereo partly drawn) [I-539, Ac-PL3-Asp-Ala-B5-[NHCyBu]AsnR-Asp-Ala-Ala-Phe-Val-S8-Phe-BztA-Gln-NH2], for which the IC50 in data set [1] (setting [2]) was determined as 5000 nM. In the data set “CHI Log D procedure”, this compound yielded a chromatographic logD of 2.94. In addition, in the data set “Solubility in PBS”, the “Solubility” value was found to be 10 µM (≈ 18.5 µg/mL).
As for `CO[C@H](C)[C@@H]1NC(=O)[C@H](CC(=O)O)NC(=O)[C@]2(CC=CCCCC3(CCCC=CCCCCCC[C@@](C)(C(=O)N[C@@H](Cc4ccccc4)C(=O)N[C@@H](Cc4csc5ccccc45)C(=O)N[C@@H](CCC(N)=O)C(N)=O)NC(=O)[C@H](CCC(N)=O)NC(=O)[C@H](Cc4ccccc4)NC(=O)[C@H](C)NC(=O)[C@H](C)NC(=O)[C@H](CCC(=O)O)NC(=O)[C@H](CC(=O)O)NC3=O)NC1=O)CCCN2C(C)=O` (stereo partly drawn) [I-541, Ac-PL3-Asp-TOMe-B5-Asp-Glu-Ala-Ala-Phe-Gln-S8-Phe-BztA-Gln-NH2], the IC50 in data set [1] (setting [2]) and in data set [1] (read-out: FP EC50) was 180 nM throughout. The “CHI Log D” value in “CHI Log D procedure” turned out to be 2.087. In the data set “Solubility in PBS”, the “Solubility” value amounted to 50 µM (≈ 94.3 µg/mL).
On to `CO[C@H](C)[C@@H]1NC(=O)[C@H](CC(=O)O)NC(=O)[C@]2(CC=CCCCC3(CCCC=CCCCCCC[C@@](C)(C(=O)N[C@@H](Cc4ccccc4)C(=O)N[C@@H](Cc4csc5ccccc45)C(=O)N[C@@H](CCC(N)=O)C(N)=O)NC(=O)[C@H](CCC(N)=O)NC(=O)[C@H](Cc4ccccc4)NC(=O)[C@H](C)NC(=O)[C@H](C)NC(=O)[C@H](CCC(=O)O)NC(=O)[C@H](CC(=O)O)NC3=O)NC1=O)CCCN2C(C)=O` (stereo partly drawn) [I-542, Ac-PL3-Asp-TOMe-B5-Asp-Glu-Ala-Ala-Phe-Gln-S8-Phe-BztA-Gln-NH2], for which the IC50 in data set [1] (setting [2]) and in data set [1] (read-out: FP EC50) was 109 nM in each case. Besides, the “CHI Log D” value in the data set “CHI Log D procedure” came out at 2.135. Also, the “Solubility” value in “Solubility in PBS” worked out at 39 µM (≈ 73.5 µg/mL).
As to `CC[C@H](C)[C@@H]1NC(=O)[C@H](CC(=O)O)NC(=O)[C@]2(CC=CCCCC3(CCCC=CCCCCCC[C@@](C)(C(=O)N[C@@H](Cc4ccsc4)C(=O)N[C@@H](Cc4csc5ccccc45)C(=O)N[C@@H](CCC(N)=O)C(N)=O)NC(=O)[C@H](CC(N)=O)NC(=O)[C@H](Cc4ccccc4)NC(=O)[C@H](C)NC(=O)[C@H](C)NC(=O)[C@H](CC(=O)O)NC(=O)[C@H](CC(=O)O)NC3=O)NC1=O)CCCN2C(C)=O` (stereo partly drawn) [I-551, Ac-PL3-Asp-Ile-B5-Asp-Asp-Ala-Ala-Phe-Asn-S8-3Thi-BztA-Gln-NH2], the IC50 in data set [1] (setting [2]) and in data set [1] (read-out: FP EC50) was 45 nM throughout. Further, the “CHI Log D” value in “CHI Log D procedure” is listed as 2.278. In the data set “Solubility in PBS”, the “Solubility” value came out at 50 µM (≈ 93.1 µg/mL).
As to `CC[C@H](C)[C@@H]1NC(=O)[C@H](CC(=O)O)NC(=O)[C@]2(CC=CCCCC3(CCCC=CCCCCCC[C@@](C)(C(=O)N[C@@H](Cc4ccccc4OC)C(=O)N[C@@H](Cc4csc5ccccc45)C(=O)N[C@@H](Cc4c[nH]cn4)C(N)=O)NC(=O)[C@H](CC(N)=O)NC(=O)[C@H](Cc4ccccc4)NC(=O)[C@H](C)NC(=O)[C@H](C)NC(=O)[C@H](CC(=O)O)NC(=O)[C@H](CC(=O)O)NC3=O)NC1=O)CCCN2C(C)=O` (stereo partly drawn) [I-554, Ac-PL3-Asp-Ile-B5-Asp-Asp-Ala-Ala-Phe-Asn-S8-2OMeF-BztA-His-NH2], the IC50 in data set [1] (setting [2]) and in data set [1] (read-out: FP EC50) was 27.5 nM in each case. For the same compound, the “CHI Log D” value in the data set “CHI Log D procedure” was determined as 2.457. Also, the “Solubility” value in the data set “Solubility in PBS” came out at 35 µM (≈ 66.3 µg/mL).
